Data from PubChem BioAssay AID248 (DTP/NCI, 2004).
Several values for one entry are separate records, joined by “and”; a condition that tells them apart may be missing. Identical values can stand only once. Toxic doses and inconclusive results are not listed.

Test system: L1210 leukemia ip in BDF1 mice, survival T/C
Assay: NCI In Vivo Anticancer Drug Screen. Data for tumor model L1210 Leukemia (intraperitoneal) in B6D2F1 (BDF1) mice
Settings: endpoint: mean survival time, higher = longer survival
In short: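 In this screen, tumor-bearing mice given compound are compared to those given vehicle, and their survival values are reported as a treated-to-control quotient.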

SMILES: O=NN(CCCl)C(=O)NC1CC2CCC1C2 (centres undefined)
- T/C (dose: 1.04 mg/kg/injection, schedule: Q#B X Z (ip), vehicle: other): 96 % of control
- T/C (dose: 2.0 mg/kg/injection, schedule: Q01DX001 (ip), vehicle: carboxymethylcellulose (CMC)): 112 % of control
- T/C (dose: 3.1 mg/kg/injection, schedule: Q01DX015 (ip), vehicle: other): 114 % of control
- T/C (dose: 3.12 mg/kg/injection, schedule: Q03HX008 (oral), vehicle: carboxymethylcellulose (CMC)): 188 % of control
- T/C (dose: 3.12 mg/kg/injection, schedule: Q03HX024 (oral), vehicle: carboxymethylcellulose (CMC)): 261 % of control
- T/C (dose: 4.0 mg/kg/injection, schedule: Q01DX001 (ip), vehicle: carboxymethylcellulose (CMC)): 115 % of control
- T/C (dose: 4.9 mg/kg/injection, schedule: Q01DX015 (ip), vehicle: other): 210 % of control
- T/C (dose: 6.25 mg/kg/injection, schedule: Q01DX001 (im), vehicle: other): 112 % of control
- T/C (dose: 6.25 mg/kg/injection, schedule: Q01DX001 (ip), vehicle: other): 109 % of control and 118 % of control
- T/C (dose: 6.25 mg/kg/injection, schedule: Q01DX001 (ip), vehicle: saline): 98 % of control and 101 % of control
- T/C (dose: 6.25 mg/kg/injection, schedule: Q01DX001 (iv), vehicle: other): 105 % of control
- T/C (dose: 6.25 mg/kg/injection, schedule: Q01DX001 (oral), vehicle: other): 100 % of control
- T/C (dose: 6.25 mg/kg/injection, schedule: Q01DX001 (sc), vehicle: other): 114 % of control
- T/C (dose: 6.25 mg/kg/injection, schedule: Q03DX Z (ip), vehicle: other): 156 % of control
- T/C (dose: 6.25 mg/kg/injection, schedule: Q03HX008 (oral), vehicle: carboxymethylcellulose (CMC)): 188 % of control
- T/C (dose: 6.25 mg/kg/injection, schedule: Q07DX Z (ip), vehicle: other): 121 % of control
- T/C (dose: 8.0 mg/kg/injection, schedule: Q01DX001 (ip), vehicle: carboxymethylcellulose (CMC)): 124 % of control
- T/C (dose: 8.0 mg/kg/injection, schedule: Q01DX009 (ip), vehicle: carboxymethylcellulose (CMC)): 227 % of control
- T/C (dose: 8.0 mg/kg/injection, schedule: Q01DX009 (oral), vehicle: carboxymethylcellulose (CMC)): 227 % of control
- T/C (dose: 8.0 mg/kg/injection, schedule: Q04DX003 (ip), vehicle: carboxymethylcellulose (CMC)): 150 % of control
- T/C (dose: 8.33 mg/kg/injection, schedule: Q#B X Z (ip), vehicle: other): 105 % of control
- T/C (dose: 9.6 mg/kg/injection, schedule: Q## X032 (ip), vehicle: other): 150 % of control
- T/C (dose: 12.0 mg/kg/injection, schedule: Q01DX001 (ip), vehicle: carboxymethylcellulose (CMC)): 124 % of control
- T/C (dose: 12.5 mg/kg/injection, schedule: Q01DX001 (ip), vehicle: other): 150 % of control
- T/C (dose: 12.5 mg/kg/injection, schedule: Q01DX001 (ip), vehicle: saline): 103 % of control and 106 % of control
- T/C (dose: 12.5 mg/kg/injection, schedule: Q01DX001 (sc), vehicle: other): 151 % of control
- T/C (dose: 12.5 mg/kg/injection, schedule: Q03DX Z (ip), vehicle: other): 235 % of control
- T/C (dose: 12.5 mg/kg/injection, schedule: Q04DX003 (oral), vehicle: carboxymethylcellulose (CMC)): 177 % of control
- T/C (dose: 12.5 mg/kg/injection, schedule: Q07DX Z (ip), vehicle: other): 179 % of control
- T/C (dose: 14.5 mg/kg/injection, schedule: Q## X001 (ip), vehicle: other): 172 % of control
- T/C (dose: 15.0 mg/kg/injection, schedule: Q## X032 (ip), vehicle: other): 158 % of control
- T/C (dose: 16.0 mg/kg/injection, schedule: Q01DX001 (ip), vehicle: carboxymethylcellulose (CMC)): 179 % of control
- T/C (dose: 16.0 mg/kg/injection, schedule: Q01DX015 (ip), vehicle: other): 261 % of control
- T/C (dose: 16.0 mg/kg/injection, schedule: Q04DX003 (ip), vehicle: carboxymethylcellulose (CMC)): 193 % of control
- T/C (dose: 25.0 mg/kg/injection, schedule: Q01DX001 (im), vehicle: other): 214 % of control
- T/C (dose: 25.0 mg/kg/injection, schedule: Q01DX001 (ip), vehicle: carboxymethylcellulose (CMC)): 196 % of control
- T/C (dose: 25.0 mg/kg/injection, schedule: Q01DX001 (ip), vehicle: other): 220 % of control
- T/C (dose: 25.0 mg/kg/injection, schedule: Q01DX001 (oral), vehicle: other): 210 % of control
- T/C (dose: 25.0 mg/kg/injection, schedule: Q01DX001 (sc), vehicle: other): 227 % of control
- T/C (dose: 25.0 mg/kg/injection, schedule: Q03HX008 (ip), vehicle: carboxymethylcellulose (CMC)): 107 % of control
- T/C (dose: 25.0 mg/kg/injection, schedule: Q03HX008 (oral), vehicle: carboxymethylcellulose (CMC)): 155 % of control
- T/C (dose: 25.0 mg/kg/injection, schedule: Q03HX024 (oral), vehicle: carboxymethylcellulose (CMC)): 150 % of control
- T/C (dose: 25.0 mg/kg/injection, schedule: Q03HX040 (ip), vehicle: carboxymethylcellulose (CMC)): 114 % of control
- T/C (dose: 25.0 mg/kg/injection, schedule: Q04DX005 (ip), vehicle: carboxymethylcellulose (CMC)): 186 % of control
- T/C (dose: 26.0 mg/kg/injection, schedule: Q01DX001 (ip), vehicle: carboxymethylcellulose (CMC)): 162 % of control
- T/C (dose: 29.0 mg/kg/injection, schedule: Q01DX001 (ip), vehicle: other): 180 % of control and 240 % of control
- T/C (dose: 29.25 mg/kg/injection, schedule: Q01DX001 (oral), vehicle: other): 156 % of control and 160 % of control
- T/C (dose: 29.25 mg/kg/injection, schedule: Q## X001 (oral), vehicle: other): 196 % of control
- T/C (dose: 30.0 mg/kg/injection, schedule: Q01DX001 (oral), vehicle: other): 229 % of control
- T/C (dose: 32.0 mg/kg/injection, schedule: Q01DX009 (ip), vehicle: carboxymethylcellulose (CMC)): 196 % of control
- T/C (dose: 32.0 mg/kg/injection, schedule: Q01DX009 (oral), vehicle: carboxymethylcellulose (CMC)): 187 % of control
- T/C (dose: 32.4 mg/kg/injection, schedule: Q01DX001 (ip), vehicle: carboxymethylcellulose (CMC)): 109 % of control
- T/C (dose: 35.0 mg/kg/injection, schedule: Q## X032 (ip), vehicle: other): 158 % of control
- T/C (dose: 40.0 mg/kg/injection, schedule: Q01DX001 (ip), vehicle: carboxymethylcellulose (CMC)): 191 % of control
- T/C (dose: 50.0 mg/kg/injection, schedule: Q01DX001 (ip), vehicle: saline): 242 % of control
- T/C (dose: 50.0 mg/kg/injection, schedule: Q01DX009 (oral), vehicle: carboxymethylcellulose (CMC)): 200 % of control
- T/C (dose: 50.0 mg/kg/injection, schedule: Q04DX005 (ip), vehicle: carboxymethylcellulose (CMC)): 230 % of control
- T/C (dose: 50.0 mg/kg/injection, schedule: Q07DX Z (ip), vehicle: other): 223 % of control
- T/C (dose: 50.0 mg/kg/injection, schedule: Q## X009 (ip), vehicle: carboxymethylcellulose (CMC)): 190 % of control
- T/C (dose: 53.0 mg/kg/injection, schedule: Q## X032 (ip), vehicle: other): 121 % of control
- T/C (dose: 54.0 mg/kg/injection, schedule: Q01DX001 (ip), vehicle: carboxymethylcellulose (CMC)): 115 % of control
- T/C (dose: 64.0 mg/kg/injection, schedule: Q01DX005 (ip), vehicle: carboxymethylcellulose (CMC)): 119 % of control
- T/C (dose: 64.0 mg/kg/injection, schedule: Q01DX009 (ip), vehicle: carboxymethylcellulose (CMC)): 123 % of control
- T/C (dose: 64.0 mg/kg/injection, schedule: Q01DX009 (oral), vehicle: carboxymethylcellulose (CMC)): 106 % of control
- T/C (dose: 64.0 mg/kg/injection, schedule: Q04DX003 (ip), vehicle: carboxymethylcellulose (CMC)): 118 % of control
- T/C (dose: 66.0 mg/kg/injection, schedule: Q## X004 (ip), vehicle: other): 191 % of control
- T/C (dose: 88.0 mg/kg/injection, schedule: Q01DX001 (oral), vehicle: other): 167 % of control
- T/C (dose: 90.0 mg/kg/injection, schedule: Q01DX001 (ip), vehicle: carboxymethylcellulose (CMC)): 242 % of control
- T/C (dose: 100.0 mg/kg/injection, schedule: Q01DX001 (ip), vehicle: carboxymethylcellulose (CMC)): 227 % of control
- T/C (dose: 100.0 mg/kg/injection, schedule: Q01DX001 (ip), vehicle: other): 225 % of control
- T/C (dose: 100.0 mg/kg/injection, schedule: Q01DX001 (oral), vehicle: carboxymethylcellulose (CMC)): 245 % of control
- T/C (dose: 100.0 mg/kg/injection, schedule: Q01DX001 (oral), vehicle: other): 190 % of control
- T/C (dose: 100.0 mg/kg/injection, schedule: Q01DX001 (sc), vehicle: other): 221 % of control
- T/C (dose: 100.0 mg/kg/injection, schedule: Q01DX005 (ip), vehicle: carboxymethylcellulose (CMC)): 108 % of control
- T/C (dose: 100.0 mg/kg/injection, schedule: Q01DX017 (ip), vehicle: carboxymethylcellulose (CMC)): 118 % of control
- T/C (dose: 100.0 mg/kg/injection, schedule: Q04DX003 (oral), vehicle: carboxymethylcellulose (CMC)): 194 % of control
- T/C (dose: 100.0 mg/kg/injection, schedule: Q## X006 (oral), vehicle: carboxymethylcellulose (CMC)): 161 % of control
- T/C (dose: 100.0 mg/kg/injection, schedule: Q## X009 (ip), vehicle: carboxymethylcellulose (CMC)): 111 % of control
- T/C (dose: 117.0 mg/kg/injection, schedule: Q01DX001 (oral), vehicle: other): 105 % of control
- T/C (dose: 117.0 mg/kg/injection, schedule: Q## X001 (oral), vehicle: other): 122 % of control
- T/C (dose: 128.0 mg/kg/injection, schedule: Q01DX001 (ip), vehicle: carboxymethylcellulose (CMC)): 104 % of control
- T/C (dose: 128.0 mg/kg/injection, schedule: Q01DX001 (oral), vehicle: carboxymethylcellulose (CMC)): 245 % of control
- T/C (dose: 128.0 mg/kg/injection, schedule: Q01DX005 (ip), vehicle: carboxymethylcellulose (CMC)): 93 % of control
- T/C (dose: 187.0 mg/kg/injection, schedule: Q01DX001 (ip), vehicle: carboxymethylcellulose (CMC)): 224 % of control
- T/C (dose: 200.0 mg/kg/injection, schedule: Q01DX001 (ip), vehicle: carboxymethylcellulose (CMC)): 94 % of control and 111 % of control
- T/C (dose: 200.0 mg/kg/injection, schedule: Q01DX001 (ip), vehicle: other): 118 % of control
- T/C (dose: 200.0 mg/kg/injection, schedule: Q01DX001 (iv), vehicle: other): 183 % of control
- T/C (dose: 200.0 mg/kg/injection, schedule: Q01DX001 (oral), vehicle: carboxymethylcellulose (CMC)): 122 % of control
- T/C (dose: 200.0 mg/kg/injection, schedule: Q04DX005 (ip), vehicle: carboxymethylcellulose (CMC)): 96 % of control
- T/C (dose: 256.0 mg/kg/injection, schedule: Q01DX001 (sc), vehicle: carboxymethylcellulose (CMC)): 109 % of control
- T/C (dose: 400.0 mg/kg/injection, schedule: Q01DX001 (ip), vehicle: other): 107 % of control
- T/C (dose: 125.0 micrograms/kg/injection, schedule: Q03HX024 (ip), vehicle: carboxymethylcellulose (CMC)): 114 % of control
- T/C (dose: 250.0 micrograms/kg/injection, schedule: Q03HX024 (ip), vehicle: carboxymethylcellulose (CMC)): 165 % of control
- T/C (dose: 2000.0 micrograms/kg/injection, schedule: Q03HX008 (ip), vehicle: carboxymethylcellulose (CMC)): 253 % of control
